Results reported in patent publication US20250170239A1, “CELLULAR REPROGRAMMING BY TARGETING THE GOLGI APPARATUS” (MUSC Foundation for Research Development, priority 2023, published 2025).

Experiments:
Format in all cases: cell-based, mouse
[1] = tested on: Pmel T cells; assay: Golgi stress (monensin, H2O2, thapsigargin) in Pmel T cells: GM130, ROS, Golgi dispersion; design: cell death / mitochondrial ROS / monensin-induced cell death and mitochondrial ROS accumulation / ER stress (p-PERK): dose or concentration left out as unconfirmed
Procedure: (FIG. 21A) Levels of intracellular glutathione assessed using FACS by employing ThiolTracker Violet dye in control CD19 CAR-T cells or CAR-T cells overexpressing Cbs (CbstdCD19-CAR-T) (n=3). (FIG. 21B) 12 hour Thapsigargin (700 nM) treatment was used to induce ER stress in WT T cells, Cbs-KO T cells, and Cbs-KO T cells+H2S. Levels of phosphorylated PERK were assessed by FACS (n=3). (FIG. 21C) Pmel T cells were treated with either Thapsigargin (700 nM) or Monensin (1 mM) for 12 hours, followed by staining for phosphorylated PERK (p-PERK) and GM130 to assess ER stress and Golgi stress, respectively (n=4). (FIG. 21D) Activated Pmel T cells were treated for 12 hours with either vehicle control or 1 mM Monensin (“+Golgi stress”) before being stained for giantin to assess Golgi dispersion. […] (FIG. 21E) Representative confocal microscopy images of mitochondria (Tom20) and Golgi (giantin) in human PBMCs treated with vehicle control or 0.5 mM GYY4137.
T cells were stained with conjugated for surface markers as described in the figure legends followed by fixation and permeabilization with BD Cytofix/Cytoperm Kit (BD Biosciences, 554722). The Golgi was labeled using anti-Giantin antibody (Abcam, ab80864) as the primary antibody followed by secondary antibody staining with anti-Rabbit IgG conjugated to Alexa Fluor 488 (ab150077). The cells were then imaged using ImageStreamX mark II imaging flow-cytometer and analyzed using IDEAS 6.2. Spectral overlap was compensated for using single-stain controls. Image analysis for Golgi area was performed using the protocol established by Eisenberg-Lerner et al.44 First, cells were gated on single cells using the area and aspect ratio features, and then gated on focused cells using the Gradient RMS feature. Golgi area was calculated using the anti-Giantin fluorescence signaling, using on the Threshold_50 mask that includes the 50% highest intensity pixels of the Golgi staining, with a mask defined as Area Threshold 50 was considered as the Golgi area to compare between the relevant conditions.

[2] = tested on: Prdx4 knockdown T cells; assay: Prdx4 siRNA knockdown Pmel T cells under Golgi/oxidative stress
Procedure: (FIG. 22A) Pmel T cells were activated for 3 days before treatment with vehicle or 50 mM H2O2 for 6 hrs. Prdx4-Golgi colocalization was assessed by PLA using mouse anti-Giantin and rabbit anti-Prdx4 antibodies. (FIG. 22B) Activated Pmel T cells treated with vehicle or 50 mM H2O2 for 6 hrs or 24 hrs with Monensin (1 mM). PLA assay was performed using anti-Giantin and anti-Prdx4 antibodies. (FIG. 22C) Experimental design using Prdx4-targeted siRNA to silence expression of Prdx4 in Pmel T cells. (FIG. 22D) GM130 expression assessed under control versus Monensin (1 μM) conditions in T cells treated with control-siRNA or Prdx4-siRNA. (FIG. 22E) GM130 expression assessed under control versus 50 mM H2O2 conditions in T cells treated with control-siRNA or Prdx4-siRNA+/−0.5 mM GYY4137. (FIG. 22F) Protein translation assessed in Pmel T cells activated+/−GYY4137 and treated with control-siRNA or Prdx4-siRNA. (FIG. 22G) GM130 expression in Pmel T cells treated with vehicle, GYY4137, or Catalase (10 μg/mL). (FIGS. 22H and 22I) Site directed mutagenesis performed to mutate cysteine-54 of the Prdx4 gene. Prdx4-targeted shRNA was used to knock down expression of Prdx4 in Jurkat T cells, followed by transfection with plasmid containing wildtype or mutated Prdx4. (FIG. 22I) GM130 expression assessed after treatment with 50 mM H2O2+/−GYY4137. (FIG. 22J) B16-F10 tumors were injected s.c. into flanks of Pmel mice and grown to ˜100 mm2. TILs and T cells from tumor-draining lymph nodes were isolated via Ficoll spin followed by magnetic bead positive selection. FACS analysis of Prdx4 expression in TILs gated on PD1loLag3lo vs PD1hiLag3hi. (FIG. 22K) Lentiviral supernatant was generated using GFP-tagged control plasmid or GFP-tagged Prdx4-overexpression plasmid. Pmel T cells were transduced with control or Prdx4 lentivirus. Pmel T cells overexpressing Prdx4 and control T cells were treated with H2O2 (50 mM) followed by staining with anti-GM130.
Given the delicate redox balance necessary for the native disulfide bonds, it was postulated that a localized mechanism for the detection and elimination of ROS produced during the oxidative folding process may require Prdx4. Thus, it was hypothesized that ER and Golgi network stress mitigated by H2S is mediated through the Prdx4 localization and activity in these organelles. First, it was established if Prdx4 also localizes within the Golgi apparatus in T cells using a proximity ligation assay (PLA), a tool that allows in situ detection of endogenous proteins with high specificity and sensitivity, with antibodies directed against Giantin (a conserved Golgi membrane protein) and Prdx4. […] Next, using siRNA targeting Prdx4, expression of Prdx4 in CD8+ Pmel T cells was knocked down (FIG. 22C, FIGS. 23A and 23B). The cells were then subjected to conditions of oxidative and Golgi stress in the presence or absence of H2S treatment. […] Then, to determine whether the protective effect of H2S on Golgi stress is dependent on the presence of Prdx4, Golgi stress was induced in the presence or absence of H2S with control (siCtl) and Prdx4 knockdown (siPrdx4) T cells.

[3] = tested on: CD8+ Pmel T cells; assay: RT-PCR of CBS and CSE in cytokine-treated CD8+ Pmel T cells; conditions: CD8+ Pmel T cells activated 3 days in presence of cytokine
From the text: (FIG. 13A) Pmel T cells were stained with trypan blue stain on day 3 following activation with gp100+IL2 (100 IU/ml) and treated with concentrations of GYY4137 (n=5). (FIG. 13B) Gating strategy for FACS analysis. Pmel splenocytes stained with LIVE/DEAD Fixable Yellow dye and anti-CD8 PE-Cy7. All FACS samples were first gated on the lymphocyte population based on FSA vs SSA. Single cells were gated using FSA vs. FSH. Live cells were gated using live/dead exclusion dye. CD8+ cells were gated by selecting the positive population. (FIG. 13C) Pmel T cells were stimulated with gp100 tumor antigen and treated with either vehicle or GYY4137 (0.5 mM) and analyzed by FACS for expression of CD62L and CD44 at day 0, day 2, day 4, and day 6. […] (FIG. 13F) CD8+ Pmel T cells were activated for 3 days in the presence of various cytokines and analyzed for mRNA expression of CBS and CSE. […] Splenocytes were activated with anti-CD3 and anti-CD28 antibodies an analyzed for expression of Cbs by western blot. (FIG. 13H) Splenocytes from WT and Cbs-KO mice were expanded with either IL-2 or expanded with IL-15 (10 ng/ml) with or without addition of H2S to the Cbs-KO cells and analyzed for expression of CD62L and CD44 by FACS (n=3). […] At day 14, the mice were bled and the frequency of CD3+ T cells was assessed by FACS (n=5). […] (FIG. 13K) Cells were analyzed using FACS for expression of PD1, TIM3, Lag3, and CD38 (n=3). […]

CC[C@@]1([C@@H]2O[C@@H]([C@H]3O[C@@](O)(CO)[C@H](C)C[C@@H]3C)C[C@@H]2C)CC[C@H]([C@]2(C)CC[C@]3(C[C@H](O)[C@@H](C)[C@@H]([C@@H](C)[C@@H](OC)[C@H](C)C(=O)O)O3)O2)O1 [monensin]
ER stress (p-PERK) [1]: did not induce ER stress | cell death [1]: induced cell death | mitochondrial ROS [1]: cellular accumulation of mitochondrial ROS | Golgi dispersion (Golgi area, ImageStream) ([1]; 1 mM Monensin 12 hours): Golgi dispersion significantly increased | intracellular ROS (DCFDA) ([1]; 1 mM monensin): significant increase in ROS (DCFDA) | decrease in GM130 expression, Prdx4 knockdown T cells ([2]; Monensin (1 μM)): further exacerbated

C/C=C(/C)C(=O)O[C@H]1C(C)=C2[C@H]([C@@H]1OC(=O)CCCCCCC)[C@@](C)(OC(C)=O)C[C@H](OC(=O)CCC)[C@@]1(O)[C@H]2OC(=O)[C@@]1(C)O [Thapsigargin]
Golgi stress (GM130) ([1]; Thapsigargin (700 nM) 12 hours): nor did Thapsigargin induced Golgi stress

IL6: cytokine that plays a key role in memory formation
mRNA expression of CBS and CSE [3]: significantly increased expression of both CBS and CSE

IL15: cytokine known to induce the Tcm phenotype in T cells
mRNA expression of CBS and CSE [3]: significantly increased expression of both CBS and CSE

catalase
protection against Golgi stress (GM130), Prdx4 knockdown T cells ([2]; Catalase (10 μg/mL)): protection against Golgi stress could be rescued
